Our source for the target mRNA inhibition values is the OligoGym collection.

Values joined by “and” are separate entries in the source; they are usually repeats but may differ in a detail not shown here. Equal entries are not always repeated. After the bases stand the sugars from the 5' end (letter, count) and the backbone: PS all phosphorothioate, else s phosphorothioate and o phosphodiester by linkage. Methylation of C is not given here. e = 2'-O-(2-methoxyethyl) (MOE); d = 2'-deoxy (DNA)

This data set deals with DGAT2. As to conditions: ASO.

Where the note is “HepG2, 0.12 µM”, “ACTGAGATGACCTGTAGCTG (sugars e5 d10 e5, PS)” came in with a target mRNA inhibition of 33%.

For the sequence “ACTGGTGCCTAAGAGCCCTA (sugars e5 d10 e5, PS)”, the target mRNA inhibition reads like this: (HepG2, 2.5 µM) 77%; (HepG2, 10 µM) 94%.

Consider “ACTTCTTCTGGACCCATCGG (sugars e5 d10 e5, PS)”, for which, where the note is “HepG2, 0.12 µM”, the target mRNA inhibition came out at 28%.

Regarding “AGACCACATGAAGTATCTAA (sugars e5 d10 e5, PS)”, the target mRNA inhibition (HepG2, 0.12 µM) amounted to 50%.

“AGAGGATGCTGGATCCAGTG (sugars e5 d10 e5, PS)” registered a target mRNA inhibition (HepG2, 0.12 µM) of 45%.

On to “AGAGGGTTCCATGGCACAAA (sugars e5 d10 e5, PS)”, for which, where the note is “HepG2, 0.12 µM”, the target mRNA inhibition was found to be 67%.

“AGATATAGTTCCTGGTGGTC (sugars e5 d10 e5, PS)” gave a target mRNA inhibition (HepG2, 0.12 µM) of 56%.

Take “AGCACAGCGATGAGCCA (sugars e3 d10 e4, PS)”: the target mRNA inhibition by setting is: (HepG2, 2.5 µM) 58%; (HepG2, 10 µM) 87%.

Take “AGCACAGCGATGAGCCAGCA (sugars e5 d10 e5, PS)”: the target mRNA inhibition (HepG2, 0.12 µM) turned out to be 35%.

“AGCACTGAGATGACCTGTAG (sugars e5 d10 e5, PS)”: the target mRNA inhibition (HepG2, 0.12 µM) amounted to 36%.

“AGCACTTGATCTGGGACCCA (sugars e5 d10 e5, PS)” yielded a target mRNA inhibition (HepG2, 2.5 µM) of 65% and a target mRNA inhibition (HepG2, 10 µM) of 94%.

Under “HepG2, 0.12 µM”, “AGCAGGTTGTGTGTCTTCAC (sugars e2 d13 e5, PS)” came in with a target mRNA inhibition of 44%.

“AGCAGGTTGTGTGTCTTCAC (sugars e3 d14 e3, PS)”: for the setting “HepG2, 0.12 µM”, the target mRNA inhibition was determined as 63%.

Consider “AGCATTGCCACTCCCATTCT (sugars e2 d13 e5, PS)”, for which the target mRNA inhibition (HepG2, 0.12 µM) came out at 50%.

Under “HepG2, 0.12 µM”, “AGCCAGGTAAGGCCGTATGC (sugars e3 d14 e3, PS)” returned a target mRNA inhibition of 51%.

As for “AGCCTCGGTGTCCTCTC (sugars e3 d10 e4, PS)”, the target mRNA inhibition reads like this: (HepG2, 2.5 µM) 8%; (HepG2, 10 µM) 90%.

Where the note is “HepG2, 0.12 µM”, “AGCGCAGAGCCCATCAGCCT (sugars e5 d10 e5, PS)” had a target mRNA inhibition of 48%.

For “AGCTCAGAGACTCAGCCGCA (sugars e5 d10 e5, PS)”, the target mRNA inhibition is 38% and 44% and 55% (HepG2, 2.5 µM); 78% and 86% (HepG2, 10 µM); 89% and 97% (HepG2, 20 µM).

For “AGCTGCAAGGATGACCTTGG (sugars e5 d10 e5, PS)”, the target mRNA inhibition is, setting by setting: (HepG2, 2.5 µM) 52%; (HepG2, 10 µM) 34%.

Sequence “AGCTGCTTTTCCACCTTGGA (sugars e2 d16 e2, PS)” yielded a target mRNA inhibition (HepG2, 0.12 µM) of 45%.

“AGCTGGATGGGAAAGTAGTC (sugars e5 d10 e5, PS)” showed a target mRNA inhibition (HepG2, 0.12 µM) of 31%.

Regarding “AGCTTGGTGAATAGCTATGT (sugars e5 d10 e5, PS)”, the target mRNA inhibition (HepG2, 2.5 µM) is 75% and 68%; the target mRNA inhibition (HepG2, 10 µM) was 93% and 92%.

For the sequence “AGGACAGAGGTTCAACATCC (sugars e5 d10 e5, PS)”, the target mRNA inhibition (HepG2, 0.12 µM) stood at 53%.

“AGGACCCACTGGAGCAC (sugars e3 d10 e4, PS)” had a target mRNA inhibition (HepG2, 2.5 µM) of 42% and a target mRNA inhibition (HepG2, 10 µM) of 93%.

“AGGACCCACTGGAGCACTGA (sugars e3 d14 e3, PS)”: the target mRNA inhibition is 82% (HepG2, 0.12 µM); 16% (HepG2, 2.5 µM); 38% (HepG2, 10 µM); 53% (HepG2, 20 µM).

In turn, “AGGACCCCGGAGTAGGCGGC (sugars e2 d13 e5, PS)” yielded a target mRNA inhibition (HepG2, 0.12 µM) of 81% and a target mRNA inhibition (HepG2, 10 µM) of 85%.

Turning to “AGGATGAACTAAATCCACCA (sugars e5 d10 e5, PS)”, the target mRNA inhibition is, setting by setting: (HepG2, 2.5 µM) 62%; (HepG2, 10 µM) 90%.

As to “AGGATGCTTAACTTCTGCTG (sugars e5 d10 e5, PS)”, the target mRNA inhibition runs as follows: (HepG2, 2.5 µM) 82%; (HepG2, 10 µM) 76%.

For the sequence “AGGCAGATGGACAGGTGATT (sugars e5 d10 e5, PS)”, the target mRNA inhibition is, setting by setting: (HepG2, 2.5 µM) 54%; (HepG2, 10 µM) 92%.

Take “AGGCATGCTTCCTCCCA (sugars e3 d10 e4, PS)”: the target mRNA inhibition is, setting by setting: (HepG2, 2.5 µM) 73%; (HepG2, 10 µM) 49%.

In the case of “AGGCATGGAGCTCAGAGACT (sugars e2 d13 e5, PS)”, the target mRNA inhibition (HepG2, 0.12 µM) came to 78%.

In turn, “AGGCCCCTTCTGAAGAGGGA (sugars e5 d10 e5, PS)” showed a target mRNA inhibition (HepG2, 0.12 µM) of 43%.

With “AGGCCTCGGGAAGCACCTGG (sugars e5 d10 e5, PS)”, the target mRNA inhibition runs as follows: (HepG2, 2.5 µM) 39%; (HepG2, 10 µM) 84%.

Take “AGGCTCTGGTTCCATGCTCT (sugars e5 d10 e5, PS)”: the target mRNA inhibition was found to be 61% (HepG2, 2.5 µM) and 79% (HepG2, 10 µM).

“AGGCTGAGTTCTGCTCCTGG (sugars e5 d10 e5, PS)”: the target mRNA inhibition was found to be 72% (HepG2, 2.5 µM) and 78% (HepG2, 10 µM).

For “AGGGAAGCATGTGCAGCCTA (sugars e5 d10 e5, PS)”, the target mRNA inhibition reads like this: (HepG2, 2.5 µM) 72% and 66%; (HepG2, 10 µM) 87% and 90%.
